Experimental data taken from patent US20100130597A1, “DNA-PKCS MODULATES ENERGY REGULATION AND BRAIN FUNCTION” (The United State of America, as represented by the …, priority 2007, published 2010).

How the values were obtained:
[1] = system: MCF7 cells; experiment: Reactive oxygen species production in MCF7 cells (CM-H2DCFDA); assay type: cell-based; settings: for Reactive oxygen species production: NU 7026 5 μM 12 h, DNP 200 μM 10 min, Troglitazone 30 μM 4 hr, Euk-134 5 μM 3 h, MnTBAP 14 μM 3 h, FIG. 4
Text: Measurement of intracellular reactive oxygen species was based on changes in the fluorescence intensity of redox-sensitive fluorescent probes, including CM-H2DCFDA. CM-H2DCFDA is a probe for intracellular hydrogen peroxide (Jou M J et al. J. Biomed Sci 9:507 (2002)). CM-H2DCFDA rapidly diffuses into cells, reacts with intracellular glutathione and thiols, and yields a fluorescent product that is retained inside the cell (Shanker G et al. Mol Brain Res 128:48, 2004). The fluorescence intensity of CM-H2DCFDA is therefore indicative of the amount of intracellular H2O2.
Briefly, cells were incubated with 10 uM CM-H2DCFDA for 30 min at 37° C. The cells were then excited at the peak excitation wavelength for CM-H2DCFDA (485 nm) and emissions at 535 nm were measured with Wallac Victor multilable counter (Perkin Elmer). For glucose treatment, the total sugar content in the media was kept constant by supplementing with mannitol, which is not metabolized.
MCF-7 cells were obtained from ATCC and grown as recommended. Confluent MCF-7 cells were incubated with serum-free DMEM medium for 3-12 h before the experiment. MCF-7 cells were then treated with DNA-PK inhibitor NU 7026 (5 μM; Calbiochem) for 12 h, DNP (200 μM; Sigma) for 10 min, Troglitazone (30 μM) for 4 hr, Euk-134 (5 μM; Eukarion) for 3 h, MnTBAP (14 μM; Calbiochem) for 3 h and Resveratrol.

[2] = biological target: T1, DNA-PKcs (Homo sapiens, UniProt P78527); experiment: DNA-PKcs activation in MCF7 cells, immunoblot for phosphorylated Ser2056; assay type: cell-based; settings: for DNA-PKcs activation in the presence of 25 mM glucose: MCF7 cells, FIG. 5
T1 construct: endogenous in cells; host or cells: MCF7 (ATCC)
Procedure: MCF7 cells were obtained from the ATCC. MCF7 cells in G0 were treated with varying doses of H2O2 (FIG. 1). The cells were examined while in the G0 phase of their life cycle to mimic the post-mitotic state of cells in vivo. Low passage MCF-7 cells in G0 were exposed to varying concentrations of H2O2 for 60 minutes with or without Euk-134 or ionizing radiation (5 Gy). For Western blot analysis of DNA-PKcs activation and the activation of other signaling pathways in this study, the following antibodies were used: ACC1 (Cell Signaling); p-ACC1 (Upstate); AMP-activated protein kinase (AMPK; Cell Signaling); p-AMPK(T172) (Cell Signaling); DNA-PK (Lab Vision); p53 (Novocastra); p-DNA-PK(S2056) (Abeam); p-p53(S15) (Cell Signaling); γ-H2AX (Upstate); 53BP1 (Novus Biologicals).
Activation of DNA-PKcs was visualized by immunoblotting cell lysates with antibody specific for phosphorylated Ser2056, which is autophosphorylated during DNA-PKcs activation (Chen et al., J. Biol. Chem. 280: 14709-15 (2005)) (FIG. 1). […] Instead, H2O2 increased DNA-PKcs activation, and such activation was abrogated by the antioxidant Euk-134 (FIG. 1), a potent synthetic superoxide dismutase and catalase mimetic (Chatterjee, Am. J. Nephrol. 24: 165-77 (2004)).
MCF7 cells were then cultured in 25 mM glucose. Aliquots of the cultured MCF7 cells were treated with ionizing radiation and/or the DNA-PKcs-specific inhibitor NU7026. Treatment with glucose and ionizing radiation increased DNA-PKcs phosphorylation (data not shown). […] The basal activity of DNA-PKcs in MCF-7 cells in 25 mM glucose was detectable even in the absence of ionizing radiation, but this basal activity was suppressed with the DNA-PKcs-specific inhibitor NU7026 (data not shown).

[3] = system: neurons; settings: low concentrations; De Felice et al. 2001; cited from earlier work
[4] = rats, systemic administration of kainic acid; Rong et al. 1999; cited from earlier work
[5] = ROS levels in tissues of ob/ob mice; assay type: in vivo; settings: FIG. 38
[6] = middle cerebral artery ligation; Baker et al. 1998; cited from earlier work
[7] = Treadmill running endurance; assay type: in vivo, mice; settings: ob/ob mice, FIG. 39
Procedure: Previous studies have shown that increased expression of PPARδ or PGC-1α in skeletal muscle decreases exercise-induced fatigue. Therefore, tests were performed to ascertain what was the physical endurance of 4, 7 and 14 month-old SCID and WT mice using treadmill running. Prior to the exercise test, the mice were accustomed to and trained by running on an Exer-3/6 mouse treadmill (Columbus Instruments) at 7 m/min for 5 minutes for 3 days. For the endurance test, the treadmill speed was increased to 10 m/min and mice were allowed to run until exhaustion.
The therapeutic potential of DNA-PKcs inhibitors to reverse physical decline with aging was tested. In particular, the physical endurance of obese and middle-aged mice treated with Cpd36 was examined by treadmill running. Obese mice fed a high-fat diet that were treated with Cpd36 were able to run 40-50% farther over a given period of time than the control mice fed the same high fat diet (FIG. 45), as measured by totaling the distance run on a treadmill. Middle-aged mice (13 months) fed a breeder diet who were similarly treated with Cpd36 were also able to run 40-50% farther than middle aged mice that received no such treatment (data not shown).

[8] = in vitro; cited from earlier work
[9] = Hot plate test, latency for pain reaction; assay type: in vivo, mice; settings: data not shown
Procedure: Epidemiological studies indicate that people with mood disorders are twice as likely to have chronic pain compared to people without mood disorders (Ohayon et al., Arch. Gen. Psychiatry 60: 39-47 (2003)). Although it is possible that pain contributes to the depressed mood, it is also possible that perception of pain is increased in people with mood disorders. To determine whether SCID mice have altered pain tolerance, the latency for pain reaction to a hot plate was measured. […] (FIG. 30) and at 55° C.
Because tolerance to pain (Example 26) is also linked to the serotonergic pathways, measurements of the latency to pain reaction on hot plate after saline, serotonin reuptake inhibitor fluoxetine (Prozac) or serotonin antagonist GR38032F (Zofran) injection were made.
(§1) Elevated plus maze tests, light/dark chamber tests, forced swim tests (FST) and hot plate tests were performed as described earlier.

[10] = Elevated plus maze test; assay type: in vivo, mice; settings: SCID mice, intraperitoneal injection, FIG. 33
Procedure: To evaluate whether SCID mice may also have altered anxiety, fear and depression-like traits, an elevated plus maze test was performed, which is a commonly used test to quantify the level of anxiety- and depression-like traits in rodents (Pellow et al. J. Neurosci. Methods 14: 149-67 (1985)). The elevated plus maze has narrow runways that are located 16 inches above the surface that are either closed or open. The animal is placed in the center of an elevated 4-arm maze in which 2 arms are open and 2 are enclosed. Mice generally avoid the open arms because of their fear of open space and height. The elevated plus-maze is used to determine the rodent's response to a potentially dangerous environment and anxiety-related behavior is measured by the degree to which the rodent avoids the unenclosed arms of the maze. Increase in the number of times the animal enters the open arm and the amount of time spent in the open arms reflect decreased anxiety and depression.
as §1

[11] = biological target: DNA-PK (Homo sapiens, UniProt P78527); settings: Hardcastle et al., J. Med. Chem. 48: 7829-46 (2005); read-out: IC50 against DNA-PK; cited from earlier work
[12] = system: LKB1; experiment: LKB1 activation (LKB1 phosphorylation) in C2C12 cells; assay type: cell-based; settings: NU7026 2.5 μM, Resveratrol 50 μM, FIG. 51A
Procedure: Cells were treated with DNA-PKcs inhibitors to ascertain whether DNA-PKcs suppresses LKB1 activity in vitro.

[13] = system: Sirt1 and PGC-1α; experiment: Sirt1 and PGC-1α expression in C2C12 myoblasts; assay type: cell-based
Procedure: (§2) Increased mitochondrial function boosts energy production and physical endurance. […] Further tests were therefore conducted to ascertain whether DNA-PKcs inhibitor elevates mitochondrial biogenesis and expression of PGC-1α and Sirt, which are important for mitochondrial biogenesis. […] It is important to note that only 2.5 μM of NU7026 was required to induce a similar level of Sirt1 to that induced by 25-50 μM Resveratrol, a well-known, potent Sirt1 activator.

[14] = system: C2C12 cells; experiment: Mitochondrial DNA copy number in C2C12 cells; assay type: cell-based; settings: C2C12 myoblasts, FIG. 49C
Procedure: Quantitative Real-Time PCR was used to assess the relative amounts of nuclear DNA and mtDNA, to permit assessment of the ratio of mtDNA to nucleic DNA, which reflects the tissue concentration of mitochondria per cell. Muscle tissues were homogenized and digested with Proteinase K overnight in a lysis buffer for DNA extraction by conventional phenol-chloroform method. Quantitative PCR was performed using the following primers: […]
as §2, with “activator. In FIG. 49C, mitochondrial DNA copy number increased (>1.8 fold) in C2C12 cells after 2.5 μM NU7026 treatment.” for “activator.”

Q: For O=[N+]([O-])c1ccc(O)c([N+](=O)[O-])c1 [DNP, 2,4-dinitrophenol], which “Reactive oxygen species production” value [1] is on record?
A: Its value is “significantly decreased”.

Q: And the “DNA-PKcs activation in the presence of 25 mM glucose” value (shortened to “DNA-PKcs activation in the presence”) [2]?
A: Its value is “decreased DNA-PKcs activation”.

Q: What about the “protection of neurons against amyloid-beta peptide toxicity” value [3] of the same molecule?
A: Its value is “protect neurons against the toxicity of the amyloid-beta peptide”.

Q: For Euk-134, which “Reactive oxygen species production” value [1] is on record?
A: Its value is “significantly decreased”.

Q: And the “glucose-induced reactive oxygen species production” value ([1]; glucose 0-25 mM, 3 hr, FIG. 2)?
A: The value was “partially suppressed”.

Q: And the “oxidative stress and brain damage” value [4]?
A: Its value is “prevent oxidative stress and attenuate brain damage”.

Q: And the “H2O2-induced DNA-PKcs activation” value ([2]; MCF7 cells in G0, H2O2 60 minutes, FIG. 1)?
A: The value was “abrogated”.

Q: And the “DNA-PKcs activation in the presence” value [2]?
A: Its value is “decreased DNA-PKcs activation”.

Q: And the “ROS production in muscle, WAT and heart tissues” value [5]?
A: The value was “decreased ROS production”.

Q: And the “effect in rat stroke model” value [6]?
A: Its value is “protective effects”.

Q: What about the treadmill running ability [7] of the same molecule?
A: Its treadmill running ability is “increased running ability of ob/ob mice dramatically”.

Q: And the hydrogen peroxide consumption [8]?
A: The hydrogen peroxide consumption was “consumes hydrogen peroxide in vitro”.

Q: For Cc1nccn1CC1CCc2c(c3ccccc3n2C)C1=O.Cl (stereo not drawn) [GR38032F], which “latency for pain reaction on hot plate” value ([9]; SCID mice) is on record?
A: Its value is “decreased the latency for pain reaction in SCID mice”.

Q: What about the “latency for pain reaction on hot plate” value ([9]; wild-type mice) of the same molecule?
A: Its value is “not wild-type mice”.

Q: And the “number of SCID mice that stayed in the open arm 30 sec or longer” value [10]?
A: Its value is “decreased dramatically”.

Q: For O=c1cc(N2CCOCC2)oc2c(-c3cccc4c3sc3ccccc34)cccc12 [NU7441, 8-dibenzothiophen-4-yl-2-morpholin-4-yl-chromen-4-one], which IC50 [11] is on record?
A: The IC50 was 13 nM.

Q: What does the source list for “Manganese (III) tetrakis(4-benzoic acid)porphyrin [MnTBAP]”?
A: Reactive oxygen species production [1]: significantly decreased; DNA-PKcs activation in the presence of 25 mM glucose [2]: decreased DNA-PKcs activation

Q: For CN(C)C(=N)NC(=N)N [metformin], which “DNA-PKcs activation in the presence” value [2] is on record?
A: Its value is “decreased DNA-PKcs activation”.

Q: Which “Reactive oxygen species production” value [1] does the source give for Cc1c(C)c2c(c(C)c1O)CCC(C)(COc1ccc(CC3SC(=O)NC3=O)cc1)O2 (racemic) [TZD, (±)-[[4-[(3,4-dihydro-6-hydroxy-2,5,7,8-tetramethl-2H-1-benzopyran-2-yl)methoxy]phenyl]methyl]-2,4-thiazolidinedione] here?
A: Its value is “significantly decreased”.

Q: For CNCCC(Oc1ccc(C(F)(F)F)cc1)c1ccccc1 (stereo not drawn) [Fluoxetine], which “latency for pain reaction on hot plate” value ([9]; wild-type mice) is on record?
A: The value was “increased the latency for pain reaction in wild-type mice”.

Q: For Oc1ccc(/C=C/c2cc(O)cc(O)c2)cc1 [Resveratrol], which “LKB1 activation (LKB1 phosphorylation)” value [12] is on record?
A: Its value is “showed LKB1 activation”.

Q: And the “Reactive oxygen species production” value [1]?
A: Its value is “significantly decreased”.

Q: What about the “concentration required to induce a similar level of Sirt1” value [13] of the same molecule?
A: The value was 25 to 50 µM.

Q: What about the “PGC-1α and Sirt1 expression” value ([13]; FIG. 49) of the same molecule?
A: The value was “increased”.

Q: What about the “DNA-PKcs activation in the presence” value [2] of the same molecule?
A: Its value is “decreased DNA-PKcs activation”.

Q: What about the “relative copy number of mitochondrial DNA” value [14] of the same molecule?
A: The value was “increases”.
